Data set [1] deals with A549 cells. Description: MTT assay for cytotoxicity, A549 cells. The format is cell-based, human. As to conditions: for anti-NSCLC activity (cytotoxicity): A549 cells, 100 µM; for IC50: Homo sapiens, A549, MTT, 72 h. The protocol: (§1) Dulbecco’s modified Eagle’s medium (DMEM) (Wako Pure Chemical Industries, Osaka, Japan) containing 10% fetal bovine serum (FBS) (Equitech-Bio, Kerrville, TX, USA) was used for the culture of A549 and MCF-7 human cancer cells, while RPMI 1640 (Wako Pure Chemical Industries) containing 10% FBS was used for the culture of Jurkat cells, derived from human leukemia. On the other hand, PBMCs (Precision Bioservices, Frederick, MD, USA) were incubated in RPMI 1640 supplemented with 10% human serum AB (HS) (Gemini, Woodland, CA, USA). All media also incorporated 89 μg/mL of streptomycin (Meiji Seika Pharma, Tokyo, Japan), and cells were maintained at 37 °C in a 95% air and 5% CO2 humidified chamber. The microtiter tissue culture plates (24-well and 96-well) (Iwaki, Asahi Glass Co., Chiba, Japan) were used for cancer cells (4 × 10^4 cells/mL) and PBMCs (5 × 10^5 cells/mL), respectively. Prior to drug treatment, all of these cells were incubated for 72 h. The optimal cell density for cytotoxicity testing was established in preliminary experiments. […] The final concentration of DMSO in the culture medium was adjusted to 1% [61, 62, 63].
(§2) The cellular reduction in MTT (Dojindo Molecular Technologies, Kumamoto, Japan) was measured as described in the literature with minor modifications. […] MTT was then added at a final concentration 0.275 mg/mL and incubated for a further 4 h at 37 °C. The medium was removed and 100 μL DMSO was added to each well to dissolve the formazan crystals. The dissolved crystals were diluted (1:10) with DMSO, and 100 μL of the solution was transferred to a 96-well microtiter plate (Iwaki, Asahi Glass Co.). Absorbance was measured at 570 nm using an Infinitive M1000 microplate spectrophotometer (Tecan, Groding, Austria). Each concentration was tested in triplicate, and the IC50 values were determined as the drug concentrations that reduced absorbance to 50% of the control values.
A general note: Formazan colour is commonly taken as a measure of viable cells.

The test system of data set [2] is MCF-7 cells. Description: MTT assay for cytotoxicity, MCF-7 cells. Conditions: for IC50: Homo sapiens, MCF7, MTT, 72 h; for anti-breast cancer activity (cytotoxicity): MCF-7 cells, 100 µM. The class given is cell-based, human. The protocol:
as §1, §2

Data set [3] has as its system Jurkat cells. Briefly: MTT assay for cytotoxicity, Jurkat cells. The class given is cell-based, human. As to conditions: for IC50: Homo sapiens, Jurkat, MTT, 72 h. The protocol: as §1, §2
For data set [4], the system named is PBMCs. Briefly: MTT assay for cytotoxicity, PBMCs (healthy). The class given is cell-based. As to conditions: PBMC, 72 h, healthy cells. How it is done: as §1
The cellular reduction in MTT (Dojindo Molecular Technologies, Kumamoto, Japan) was measured as described in the literature with minor modifications. […] Absorbance was measured at 570 nm using an Infinitive M1000 microplate spectrophotometer (Tecan, Groding, Austria). […]

Data set [5] deals with A549 cells. Description: Annexin V/ethidium homodimer III staining for apoptosis, A549 cells. The format is cell-based, human. As to conditions: IC50 concentration, 24 h. How it is done:
(§3) Compound B-4 at an IC50 concentration was administered to A549 and MCF-7 cells for 24 h. After detachment from the plate with 0.05% trypsin and washing twice with 1× binding buffer, the cells were incubated for 20 min at r.t. in the dark with a staining solution bearing 50 μL 1× binding buffer, 4 μL FTIC annexin V solution, 4 μL ethidium homodimer III solution, and 4 μL Hoechst 33342 solution. The cells were washed with 1× binding buffer, fixed with 2% paraformaldehyde, washed with PBS, and analyzed by a Biorevo Fluorescence BZ-9000 (Keyence, Osaka, Japan) integrated fluorescence microscope.

Data set [6] deals with MCF-7 cells. Briefly: Annexin V/ethidium homodimer III staining for apoptosis, MCF-7 cells. The format is cell-based, human. Conditions: IC50 concentration, 24 h. How it is done:
as §3

Data set [7] concerns the target T1, EGFR kinase (Homo sapiens, UniProt P00533).
T1 construct: EGFR kinase (human, recombinant; amino acids 695–end); purchased Promega Corporation V3831
Description: EGFR inhibition assay (EGFR Kinase Enzyme System, ADP-Glo). The format is biochemical. The protocol:
The kinase profiling assay protocol (EGFR Kinase Enzyme System, V3831) was performed following the manufacturer’s instructions (Promega Corporation, Madison, WI, USA) with minor modifications. As per the protocol, 95 μL of 2.5× kinase buffer and 15 μL of 100 μM ATP solution were used for the dilution of the EGFR kinase (human, recombinant; amino acids 695–end) and its substrate (4:1 Glu, Tyr). Kinase reactions were performed in a 384-well plate in the presence of 2 μL of kinase working stock, 2 μL of ATP/substrate working stock, and 1 μL of the test compound solution ([…]) or 5% DMSO solution. After incubating for 2 h at r.t., kinase activity was assessed using the ADP-Glo Kinase Assay (Promega Corporation, Madison, WI, USA) following the manufacturer’s instructions. Specifically, 5 μL of ADP-Glo Reagent was added to each well and incubated for 40 min, followed by the addition of 10 μL of Kinase Detection Reagent and further incubation for 30 min at room temperature. Luminescence was measured using the Infinite M1000 microplate reader (Tecan, Grödig, Austria) with an integration time of 0.5–1 s to evaluate the kinase inhibitory effects of the compounds in a dose-dependent manner.
On the technique in general: ADP-Glo first removes unused ATP, then detects ADP through luciferase.

Data set [8] concerns A549 cells. Conditions: cited from earlier work.
The subject of data set [9] is EGFR. Conditions: cited from earlier work; for IC50: read-out: EGFR inhibition IC50.
In data set [10] the test system is MCF-7 cells. As to conditions: cited from earlier work.
[11] abbreviates: thiazolyl–pyrazolines, read-out: IC50 A549 cells.
The mark [12] stands for this setting: quinoline/chalcone hybrids with 1,2,4-triazole.
The mark [13] stands for this setting: triazoloquinoxaline–chalcone derivatives.

Where “and” joins values, the source holds several entries; their conditions need not be identical. Equal entries are not always repeated. Where two headings read alike, the source gives them in different places.

One may read the IC50 as the concentration needed to halve the response being measured. Broadly, the inhibition is how much of the control response was suppressed.

T1 sequence (P00533 695-1210 limits assumed): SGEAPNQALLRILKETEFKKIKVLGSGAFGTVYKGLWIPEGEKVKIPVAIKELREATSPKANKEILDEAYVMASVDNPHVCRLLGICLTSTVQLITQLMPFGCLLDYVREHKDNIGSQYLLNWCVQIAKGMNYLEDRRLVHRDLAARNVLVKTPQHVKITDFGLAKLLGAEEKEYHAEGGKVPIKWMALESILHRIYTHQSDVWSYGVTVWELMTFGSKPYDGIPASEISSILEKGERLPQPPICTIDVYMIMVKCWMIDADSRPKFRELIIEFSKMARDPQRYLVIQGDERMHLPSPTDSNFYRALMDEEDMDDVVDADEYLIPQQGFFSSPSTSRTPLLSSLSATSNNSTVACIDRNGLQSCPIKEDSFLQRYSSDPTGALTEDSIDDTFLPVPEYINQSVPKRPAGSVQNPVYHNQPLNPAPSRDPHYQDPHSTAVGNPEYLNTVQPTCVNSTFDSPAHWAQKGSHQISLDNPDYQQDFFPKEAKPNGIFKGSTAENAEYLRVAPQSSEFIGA

With `COc1ccc(C(=O)/C=C/c2cnc(-c3ccc(Cl)cc3)nc2)cc1OC` [B-4, (E)-3-(2-(4-chlorophenyl)pyrimidin-5-yl)-1-(3,4-dimethoxyphenyl)prop-2-en-1-one], the “anti-NSCLC activity (cytotoxicity)” value in data set [1] turned out to be 70%. The IC50 in [1] came out at 20.5 ± 2.71 µM; in data set [2] it was 6.7 ± 1.02 µM; in data set [3] it was 1.5 ± 0.4 µM; in data set [4], 68.9 ± 10.3 µM. The “anti-breast cancer activity (cytotoxicity)” value (“anti-breast cancer activity” below) in data set [2] is given as 70%. Besides, in [3] (IC50 for PBMC/IC50 for Jurkat cell line), the “SI (Selectivity Index)” value is listed as 45.93. Further, the “cells that underwent apoptosis” value in data set [5] came to 11.9%; in [6], 10.2%. Moreover, the EGFR inhibition result in [7] (1 μM) is on record as “weak inhibition”. Also, the inhibition at 10 µM in data set [7] (10 μM) came to 46%.
On to `COc1ccc(C2=NN(C(N)=S)C(c3cnc(-c4ccc(Cl)cc4)nc3)C2)cc1OC` (centres unmarked) [B-9, 5-(2-(4-chlorophenyl)pyrimidin-5-yl)-3-(3,4-dimethoxyphenyl)-4,5-dihydro-1H-pyrazole-1-carbothioamide], for which the “anti-NSCLC activity (cytotoxicity)” value in data set [1] is reported as 43%. Besides, the “anti-breast cancer activity” value in [2] stood at 33%.
For `COc1ccc(C2=NN(c3nc(-c4ccc(Cl)cc4)cs3)C(c3cnc(-c4ccc(Cl)cc4)nc3)C2)cc1OC` (centres unmarked) [BH-4, 2-(5-(2-(4-Chlorophenyl)pyrimidin-5-yl)-3-(3,4-dimethoxyphenyl)-4,5-dihydro-1H-pyrazol-1-yl)-4-(4-(chloro)phenyl)thiazole], the “anti-breast cancer activity” value in data set [2] is listed as 38%.
With `COc1ccc(C2=NN(c3nc(-c4ccc(Br)cc4)cs3)C(c3cnc(-c4ccc(Cl)cc4)nc3)C2)cc1OC` (centres unmarked) [BH-5, 2-(5-(2-(4-Chlorophenyl)pyrimidin-5-yl)-3-(3,4-dimethoxyphenyl)-4,5-dihydro-1H-pyrazol-1-yl)-4-(4-(bromo)phenyl)thiazole], the “anti-NSCLC activity (cytotoxicity)” value in [1] is recorded as 37%. The “anti-breast cancer activity” value in [2] worked out at 39%.
As for `Clc1ccc(C2CC(c3ccc4ccccc4c3)=NN2c2nc(-c3ccc(Br)cc3)cs2)cc1` (centres unmarked) [BTT-5], the IC50 in [8] (naphthalene-linked pyrazoline–thiazole hybrids, read-out: anti-NSCLC IC50 (A549 cells)) is 9.51 µM. The EGFR inhibition in data set [9] (10 µM concentration, 10 µM) was 58% and 58.32%.
Regarding `N#Cc1ccc(-c2csc(N3N=C(c4ccc(N5CCOCC5)cc4)CC3c3ccc(Cl)cc3)n2)cc1` (centres unmarked) [Compound 3f], the IC50 was 10.8 µM in data set [8] (setting [11]), 8.05 µM in [10] (thiazolyl–pyrazolines) and 4.34 µM in data set [9] (thiazolyl–pyrazolines).
For the compound `COc1ccc2nc(Cl)c(C3CC(c4ccc(C)cc4)=NN3c3nc(-c4ccc(F)cc4)cs3)cc2c1` (centres unmarked) [Compound 6c], the figures for the IC50 in data set [10] (thiazolyl–pyrazolines) and in data set [9] (thiazolyl–pyrazolines) were 0.227 µM and 0.0318 µM, respectively.
In the case of `COc1ccc(C2CC(c3ccc(OC)c(OC)c3)=NN2c2nc(-c3ccccc3)cs2)cc1` (centres unmarked) [Compound 6e], the IC50 in data set [10] (thiazolyl–pyrazolines) is 7.21 µM; in data set [9] (thiazolyl–pyrazolines) it was 0.009 µM.
`C=CCn1c(SCC(=O)Nc2ccc(C(=O)/C=C/c3ccc(Cl)cc3)cc2)nnc1-c1cc(-c2ccccc2)nc2ccccc12` [Compound 7b]: the IC50 in [8] (quinoline/chalcone hybrids with 1,2,4-triazole, read-out: IC50 A549 cells) is 3.6 ± 0.05 µM; in [10] (setting [12]), 3.3 ± 0.08 µM; in [9] (setting [12]), 1.3 ± 1.2 µM.
Take `CCc1nnc2c(Nc3ccc(C(=O)/C=C/c4ccc(OC)cc4)cc3)nc3ccccc3n12` [Compound 7e]: the figures for the IC50 in data set [10] (setting [13]) and in data set [9] (setting [13]) were 8.23 ± 0.25 µM and 0.083 ± 0.04 µM, respectively.
As to `CCOC(=O)c1sc(N2N=C(c3ccc(Cl)cc3Cl)CC2c2ccc(OC)cc2)nc1C` (centres unmarked) [Compound 10b], the IC50 in data set [8] (setting [11]) is 4.22 µM; in data set [9] (thiazolyl–pyrazolines), 0.0407 µM.
Consider `COc1ccc(C2CC(c3ccc(Cl)cc3Cl)=NN2c2nc(C)c(C(=O)Nc3ccccc3)s2)cc1OC` (centres unmarked) [Compound 10d], for which the IC50 in [8] (setting [11]) is 2.92 µM; in data set [9] (thiazolyl–pyrazolines), 0.0325 µM.
Turning to `CS(=O)(=O)CCNCc1ccc(-c2ccc3ncnc(Nc4ccc(OCc5cccc(F)c5)c(Cl)c4)c3c2)o1` [Lapatinib], the IC50 in [1] stood at 18.2 ± 3.25 µM; in [2], 9.71 ± 1.12 µM; in [3], 1.43 ± 0.35 µM; in [4], 12.7 ± 2.08 µM.

These data come from paper PMC11859636, “Design, Synthesis, and Mechanistic Anticancer Evaluation of New Pyrimidine-Tethered Compounds” (Pharmaceuticals, 2025).
